Read-outs that look alike come from different tables or passages of the source. *1 amine or outer side, *2 acyl side, *3 side chain or, on linkers, in order; H or OH if unused. Where a SMILES comes first, the peptide text is derived from it. [ ]: non-standard residue; d: D form. The star is where a group is joined. GluureaLys(ε-3-ClBenzyl) = O=C(O)CC[C@H](NC(=O)N[C@@H](CCCCN(Cc1cccc(Cl)c1)*)C(=O)O)C(=O)O; X4 = C[C@]12CC[C@H](OC(=O)CCC(=O)*)CC1=CC[C@@H]1[C@@H]2CC[C@]2(C)C(c3cccnc3)=CC[C@@H]12; Dolaproine = CO[C@@H]([C@@H]1CCCN1)[C@@H](C)C(=O)O; Dil = CC[C@H](C)[C@H](NC)[C@@H](CC(=O)O)OC; X2 = O=C(CCCc1cn(CCCN[*:1])nn1)[*:2]; PABC = O=C(OCc1ccc(N[*:1])cc1)[*:2]; X1 = C[C@@H](N*)[C@@H](O)c1ccccc1; Cit = NC(=O)NCCC[C@H](N)C(=O)O; Suc = O=C(CCC(=O)[*:2])[*:1]; NMeV = CN[C@H](C(=O)O)C(C)C; Ahx = NCCCCCC(=O)O
How the values were obtained:
[1] = test system: 22Rv1 human prostate carcinoma xenograft; details: 22Rv1 xenograft; for tumor volume V±m: i.v. triple injection, single dose 132.3 nM/kg; for Tumor growth inhibition: i.v. 132.3 nM/kg three times
Procedure: (§1) We carried out in vivo studies of the efficacy of the obtained bimodal conjugates. […] Also, conjugate I (Figure 5) was used as a reference compound. An isotonic (0.9%) sodium chloride solution was used as a negative control. Studies were carried out in xenograft models of 22Rv1 human prostate carcinoma and PC-3 prostate adenocarcinoma in immunodeficient Balb/c nude mice (male).
(§2) Two cell lines were used: human prostate carcinoma 22Rv1 and prostate adenocarcinoma PC-3 (ATCC collection). Cells were cultured in 75 cm^2 vials (Costar, Washington, DC, USA) in RPMI-1640 medium (PanEco, Russia) with the addition of 2 mM L-glutamine (PanEco, Russia) and 10% fetal calf serum (HyClone, Logan, UT, USA) under standard conditions of cultivation (in a humidified atmosphere at 37 °C and 5% CO2). Cells of 6–10 passages were used to inoculate the animals. Cell suspension was prepared with a concentration of 5 × 10^6 cells in 0.05 mL of the 22Rv1 medium and in 0.1 mL of the PC-3 medium. 22Rv1 cells were inoculated into animals in Matrigel (BD Matrigel Basement Membrane Matrix, BD Biosciences, San Jose, CA, USA). Manipulations with Matrigel were performed on a refrigerated plate using precooled materials, tubes and instrumentation. For animal administration, 50 μL of the cell suspension (5 × 10^6 cells) was transferred to a chilled tube containing 50 μL of Matrigel; after mixing, the cellular material (final volume of 100 μL) was injected subcutaneously into the groin area of the animal. To obtain subcutaneous xenograft PC-3, a 5 × 10^6 suspension of tumor cells was inoculated subcutaneously into the inguinal cavity of male mice in a volume of 0.1 mL.
(§3) To study the antitumor efficacy, conjugates were administered intravenously at a dose of 132.3 nM/kg to tumor-bearing mice three times at five-day intervals; administration was started 7−8 days after cell inoculation, and the tumor size was 70−90 mm^3. As a control substance, 0.9% sodium chloride solution was used. Experimental groups included five animals each. […] The mixture was dissolved in DMSO (5% of final solution) and diluted with hemodesum (30% low-molecular-weight polyvinylpyrrolidone (Mw = 8000 ± 200) saline infusion solution). The presence of tumors and their sizes, as well as the body weights of the mice, were recorded every five days during the observation of the animals. The antitumor effect was assessed by comparing the tumor volumes in the experimental and control groups as well as the amount of tumor growth inhibition (TGI, %).
(§4) Tumor volume was calculated using Formula (1):V = d1 × d2 × d3 × 0.52(1) where d1, d2 and d3 are the three mutually perpendicular dimensions of the tumor. […]
(§5) 3.2.1. In vivo evaluation of antitumor efficacy […]
(§6) intravenously at a dose of 132.3 nM/kg to tumor-bearing mice three times at 5-day intervals, the administration was started 7-8 days after cell inoculation to animals, tumor size was 70-90 mm3.
(§7) A 0.9% sodium chloride solution was used as a control substance. The experimental groups […]
(§8) The presence of tumor masses and their size, as well as the body weight of the mice, were recorded every 5 days during observation. In accordance with humane principles, animals were euthanized by placing the mice in a CO2 inhalation chamber (ZOONLAB GmbH, Germany).

[2] = test system: PC-3 prostate adenocarcinoma xenograft; details: PC-3 xenograft; for tumor volume V±m: i.v. triple injection, single dose 132.3 nM/kg; for Tumor growth inhibition: i.v. 132.3 nM/kg three times
Procedure: as §1, §2, §3, §4, §5, §6, §7, §8

[3] = Body weight, general condition and mortality in the antitumor efficacy study; details: i.v. 132.3 nM/kg x3
Procedure: Animal body weight data are presented in Table S2 in the electronic supplementary materials.
as §3, with “%). […]” for “%).”
as §5, §6, §7, §8
Conjugate Method of injection Dose Number of animals 22Rv1 PC-3 […]
3.4. In vivo Efficacy Evaluation
Days after tumor implantation / mass± error, g
Conjugate 7 day 12 day 17 day […]
injection) injection) injection)
Human prostate carcinoma 22Rv1
Human prostate adenocarcinoma PC-3
Table S3. Tumor growth dynamics of 22Rv1 and PC-3 in mice with intravenous triple injection of […]
ate Days after tumor implantation / V±m, mm3

[4] = 7 day after tumor implantation (1st injection)
[5] = 12 day after tumor implantation (2nd injection)
[6] = 22 day after tumor implantation
[7] = 33 day after tumor implantation
[8] = 37 day after tumor implantation
[9] = days after the start of treatment: 1
[10] = days after the start of treatment: 5
[11] = days after the start of treatment: 10
[12] = days after the start of treatment: 16
[13] = days after the start of treatment: 20

CC[C@H](C)[C@@H]([C@@H](CC(=O)N1CCC[C@H]1[C@H](OC)[C@@H](C)C(=O)N[C@H](C)[C@@H](O)c1ccccc1)OC)N(C)C(=O)[C@@H](NC(=O)[C@H](C(C)C)N(C)C(=O)OCc1ccc(NC(=O)[C@H](CCCNC(N)=O)NC(=O)[C@@H](NC(=O)CCCc2cn(CCCNC(=O)[C@H](CCCCNC(=O)CCC(=O)O[C@H]3CC[C@@]4(C)C(=CC[C@@H]5[C@@H]4CC[C@]4(C)C(c6cccnc6)=CC[C@@H]54)C3)NC(=O)[C@H](Cc3ccc(O)cc3)NC(=O)[C@H](Cc3ccccc3)NC(=O)CCC(=O)NCCCCCC(=O)N(CCCC[C@H](NC(=O)N[C@@H](CCC(=O)O)C(=O)O)C(=O)O)Cc3cccc(Cl)c3)nn2)C(C)C)cc1)C(C)C [13a] ({GluureaLys(ε-3-ClBenzyl)-Ahx-Suc}-FYK(X4)[X2]V[Cit][PABC][NMeV]V[Dil][Dolaproine]-X1)
tumor volume V±m [1, 4]: 69.6±17.0 mm3 | tumor volume V±m [1, 5]: 77.2±9.3 mm3 | tumor volume V±m ([1]; 17 day after tumor implantation (3rd injection)): 81.4±25.8 mm3 | tumor volume V±m [1, 6]: 121.7 mm3 | tumor volume V±m [1, 7]: 391.6 mm3 | tumor volume V±m [1, 8]: 784.0 mm3 | Tumor growth inhibition [1, 9]: 62.0% | Tumor growth inhibition [1, 10]: 77.1% | Tumor growth inhibition [1, 11]: 80.4% | Tumor growth inhibition [1, 12]: 80.6% | Tumor growth inhibition [1, 13]: 72.6% | tumor volume V±m [2, 4]: 82.2±5.9 mm3 | tumor volume V±m [2, 5]: 127.5 mm3 | tumor volume V±m [2, 6]: 292.5 mm3 | tumor volume V±m ([2]; 27 day after tumor implantation): 463.1 mm3 | tumor volume V±m [2, 7]: 958.0 mm3 | tumor volume V±m [2, 8]: 1684.0 mm3 | Tumor growth inhibition [2, 9]: 36.2% | Tumor growth inhibition [2, 10]: 40.0% | Tumor growth inhibition [2, 11]: 44.9% | Tumor growth inhibition [2, 12]: 29.5% | Tumor growth inhibition [2, 13]: 38.3% | TGI, did not exceed ([2]; i.v. 132.3 nM/kg three times at five-day intervals, male Balb/c nude mice): ≤ 44.9% | body weight, mass ± error ([3]; 22Rv1 xenograft mice, 7 day after tumor implantation (1st injection)): 22.3 ± 1.3 g | body weight, mass ± error ([3]; 22Rv1 xenograft mice, 12 day after tumor implantation (2nd injection)): 22.5 ± 1.4 g | body weight, mass ± error ([3]; 22Rv1 xenograft mice, 17 day after tumor implantation (3rd injection)): 22.2 ± 1.4 g | body weight, mass ± error ([3]; 22Rv1 xenograft mice, 22 day after tumor implantation): 22.2 ± 1.4 g | body weight, mass ± error ([3]; 22Rv1 xenograft mice, 27 day after tumor implantation): 22.5 ± 1.3 g | body weight, mass ± error ([3]; 22Rv1 xenograft mice, 33 day after tumor implantation): 22.7 ± 1.3 g | body weight, mass ± error ([3]; 22Rv1 xenograft mice, 37 day after tumor implantation): 22.7 ± 1.3 g | body weight, mass ± error ([3]; PC-3 xenograft mice, 7 day after tumor implantation (1st injection)): 24.9 ± 1.2 g | body weight, mass ± error ([3]; PC-3 xenograft mice, 12 day after tumor implantation (2nd injection)): 24.7 ± 1.5 g | body weight, mass ± error ([3]; PC-3 xenograft mice, 17 day after tumor implantation (3rd injection)): 24.8 ± 1.4 g | body weight, mass ± error ([3]; PC-3 xenograft mice, 22 day after tumor implantation): 25.0 ± 1.4 g | body weight, mass ± error ([3]; PC-3 xenograft mice, 27 day after tumor implantation): 25.1 ± 1.3 g | body weight, mass ± error ([3]; PC-3 xenograft mice, 33 day after tumor implantation): 25.2 ± 1.2 g | body weight, mass ± error ([3]; PC-3 xenograft mice, 37 day after tumor implantation): 25.3 ± 1.2 g

From paper PMC10380083, “Synthesis of Prostate-Specific Membrane Antigen-Targeted Bimodal Conjugates of Cytotoxic Agents and Antiandrogens and Their Comparative Assessment with Monoconjugates” (International Journal of Molecular Sciences, 2023)
